# Measurements as given in US11046699B2, “Pyrazolo-pyrimidin-amino-cycloalkyl compounds and their therapeutic uses” (RAPT THERAPEUTICS, INC., priority 2018, dated 2021).
# pIC50: −log10 of the molar value.
# Molecular target: GCN2 (Homo sapiens, UniProt Q9P2K8)
# Experiment: GCN2 enzymatic endpoint assay: phosphorylation of GFP-eIF2α measured by TR-FRET (Lanthascreen)
# Type: biochemical
# Details: tested as described in Example 77; compound and/or hydrochloride, dihydrochloride or trifluoroacetic acid salt; read-out: IC 50 Activity
# How it was run: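 Kinase activity is measured as phosphorylation of GFP-labelled eIF2α (80 nM) with ATP at 2 μM. Incubation runs 90 minutes at room temperature before EDTA quench and terbium-antibody detection.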
# GCN2, sequence (Q9P2K8 whole entry): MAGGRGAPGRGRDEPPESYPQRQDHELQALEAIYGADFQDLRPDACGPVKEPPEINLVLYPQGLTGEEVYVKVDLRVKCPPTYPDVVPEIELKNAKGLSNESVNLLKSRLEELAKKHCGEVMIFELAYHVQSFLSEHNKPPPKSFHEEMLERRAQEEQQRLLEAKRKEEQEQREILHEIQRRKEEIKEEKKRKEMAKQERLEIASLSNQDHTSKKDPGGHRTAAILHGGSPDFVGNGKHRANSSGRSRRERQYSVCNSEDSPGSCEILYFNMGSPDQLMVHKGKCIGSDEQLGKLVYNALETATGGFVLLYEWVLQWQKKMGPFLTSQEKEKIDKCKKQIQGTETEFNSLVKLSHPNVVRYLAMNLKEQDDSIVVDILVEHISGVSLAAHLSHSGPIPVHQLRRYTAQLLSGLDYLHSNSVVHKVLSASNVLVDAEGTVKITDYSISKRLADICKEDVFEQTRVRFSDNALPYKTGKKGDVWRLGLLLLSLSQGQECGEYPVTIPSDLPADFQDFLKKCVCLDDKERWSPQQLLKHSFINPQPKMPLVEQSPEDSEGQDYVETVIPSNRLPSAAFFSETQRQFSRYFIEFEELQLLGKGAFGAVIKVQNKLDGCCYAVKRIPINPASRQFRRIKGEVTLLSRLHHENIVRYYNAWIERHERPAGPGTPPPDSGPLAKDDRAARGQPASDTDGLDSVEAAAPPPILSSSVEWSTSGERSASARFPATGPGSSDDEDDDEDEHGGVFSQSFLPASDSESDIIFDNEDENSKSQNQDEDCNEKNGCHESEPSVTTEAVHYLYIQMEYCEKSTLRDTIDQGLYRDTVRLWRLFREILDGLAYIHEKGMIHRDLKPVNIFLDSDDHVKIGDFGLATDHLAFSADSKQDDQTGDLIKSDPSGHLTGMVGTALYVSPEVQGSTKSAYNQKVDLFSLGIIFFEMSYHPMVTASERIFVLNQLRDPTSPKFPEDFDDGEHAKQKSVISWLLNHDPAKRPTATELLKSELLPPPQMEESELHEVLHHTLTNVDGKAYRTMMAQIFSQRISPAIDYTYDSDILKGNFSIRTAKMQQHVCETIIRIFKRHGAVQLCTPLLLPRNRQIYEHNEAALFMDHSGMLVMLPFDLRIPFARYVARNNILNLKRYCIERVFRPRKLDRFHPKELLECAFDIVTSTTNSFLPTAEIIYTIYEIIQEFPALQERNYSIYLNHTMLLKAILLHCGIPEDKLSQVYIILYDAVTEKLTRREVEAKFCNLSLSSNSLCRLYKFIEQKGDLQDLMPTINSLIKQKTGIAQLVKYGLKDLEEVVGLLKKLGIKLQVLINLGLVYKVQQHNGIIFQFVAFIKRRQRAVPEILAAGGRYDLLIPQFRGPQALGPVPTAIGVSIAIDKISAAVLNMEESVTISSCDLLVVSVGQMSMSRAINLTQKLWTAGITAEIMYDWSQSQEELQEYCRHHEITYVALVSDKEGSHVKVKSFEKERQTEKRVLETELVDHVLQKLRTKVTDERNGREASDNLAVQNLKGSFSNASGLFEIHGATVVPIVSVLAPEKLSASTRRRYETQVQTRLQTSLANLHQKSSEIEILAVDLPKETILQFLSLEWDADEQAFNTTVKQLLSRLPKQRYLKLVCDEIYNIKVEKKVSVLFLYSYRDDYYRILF
row,Compound,pIC50
1,"CNC(=O)[C@]1(C)CC[C@@H](Nc2ncc3c(Br)nn(-c4ccc(-c5nnc(C)s5)c(CC(C)O)c4)c3n2)C1 (stereo partly drawn) [(1R,3R)-3-[[3-bromo-1-[3-(2-hydroxypropyl)-4-(5-methyl-1,3,4-thiadiazol-2-yl)phenyl]pyrazolo[3,4-d]pyrimidin-6-yl]amino]-N,1-dimethyl-cyclopentanecarboxamide]",6.70 to 7.60
2,"CNC(=O)[C@]1(C)CC[C@@H](Nc2ncc3c(Br)nn(-c4ccc5ncc(OCCOC)cc5c4)c3n2)C1 [(1R,3R)-3-[[3-bromo-1-[3-(2-methoxy-ethoxy)-6-quinolyl]pyrazolo[3,4-d]pyrimidin-6-yl]amino]-N,1-dimethyl-cyclopentanecarboxamide]",6.70 to 7.60
3,"CNC(=O)[C@]1(C)CC[C@@H](Nc2ncc3c(Br)nn(-c4ccc(-c5nnc(C)s5)c(CCS(C)(=O)=O)c4)c3n2)C1 [(1R,3R)-3-[[3-bromo-1-[3-(2-methyl-sulfonylethyl)-4-(5-methyl-1,3,4-thiadiazol-2-yl)phenyl]pyrazolo[3,4-d]pyrimidin-6-yl]amino]-N,1-dimethyl-cyclopentanecarboxamide]",6.70 to 7.60
4,"CNC(=O)[C@]1(C)CC[C@@H](Nc2ncc3c(Br)nn(-c4cccc(CCS(C)(=O)=O)c4)c3n2)C1 [(1R,3R)-3-[[3-bromo-1-[3-(2-methyl-sulfonylethyl)phenyl]pyrazolo[3,4-d]pyrimidin-6-yl]amino]-N,1-dimethyl-cyclopentanecarboxamide]",6.70 to 7.60
5,"CNC(=O)[C@]1(C)CC[C@@H](Nc2ncc3c(Br)nn(-c4ccc(-c5ncco5)c(CCN5CCOCC5)c4)c3n2)C1 [(1R,3R)-3-[[3-bromo-1-[3-(2-morpholino-ethyl)-4-oxazol-2-yl-phenyl]pyrazolo [3,4-d]pyrimidin-6-yl]amino]-N,1-dimethyl-cyclopentanecarboxamide]",6.70 to 7.60
6,"CNC(=O)[C@]1(C)CC[C@@H](Nc2ncc3c(Br)nn(-c4ccc5ncc(NC(=O)CCOC)cc5c4)c3n2)C1 [(1R,3R)-3-[[3-bromo-1-[3-(3-methoxy-propanoylamino)-6-quinolyl]pyrazolo[3,4-d]pyrimidin-6-yl]amino]-N,1-dimethyl-cyclopentanecarboxamide]",6.70 to 7.60
7,"CNC(=O)[C@]1(C)CC[C@@H](Nc2ncc3c(Br)nn(-c4cccc(Oc5ccncc5)c4)c3n2)C1 [(1R,3R)-3-[[3-bromo-1-[3-(4-pyridyloxy)phenyl]pyrazolo[3,4-d]pyrimidin-6-yl]amino]-N,1-dimethyl-cyclopentane-carboxamide]",6.70 to 7.60
8,"CNC(=O)[C@]1(C)CC[C@@H](Nc2ncc3c(Br)nn(-c4ccc(-c5nnc(C)s5)c(OCC#N)c4)c3n2)C1 [(1R,3R)-3-[[3-bromo-1-[3-(cyanomethoxy)-4-(5-methyl-1,3,4-thiadiazol-2-yl)phenyl]pyrazolo[3,4-d]pyrimidin-6-yl]amino]-N,1-dimethyl-cyclopentanecarboxamide]",6.70 to 7.60
9,"CNC(=O)[C@]1(C)CC[C@@H](Nc2ncc3c(Br)nn(-c4cc(F)cc(CC#N)c4)c3n2)C1 [(1R,3R)-3-[[3-bromo-1-[3-(cyanomethyl)-5-fluoro-phenyl]pyrazolo[3,4-d]pyrimidin-6-yl]amino]-N,1-dimethyl-cyclopentane-carboxamide]",6.70 to 7.60
10,"CNC(=O)[C@]1(C)CC[C@@H](Nc2ncc3c(Br)nn(-c4cc(CO)cc(C(F)(F)F)c4)c3n2)C1 [(1R,3R)-3-[[3-bromo-1-[3-(hydroxy-methyl)-5-(trifluoromethyl)phenyl]pyrazolo[3,4-d]pyrimidin-6-yl]amino]-N,1-dimethyl-cyclopentanecarboxamide]",6.70 to 7.60
11,"CNC(=O)[C@]1(C)CC[C@@H](Nc2ncc3c(Br)nn(-c4cc(CO)cc([N+](=O)[O-])c4)c3n2)C1 [(1R,3R)-3-[[3-bromo-1-[3-(hydroxy-methyl)-5-nitro-phenyl]pyrazolo [3,4-d]pyrimidin-6-yl]amino]-N,1-dimethyl-cyclopentanecarboxamide]",6.70 to 7.60
12,"CNC(=O)[C@]1(C)CC[C@@H](Nc2ncc3c(Br)nn(-c4ccc(-c5ncco5)c(CO)c4)c3n2)C1 [(1R,3R)-3-[[3-bromo-1-[3-(hydroxymethyl)-4-oxazol-2-yl-phenyl]pyrazolo[3,4-d]pyrimidin-6-yl]amino]-N,1-dimethyl-cyclopentanecarboxamide]",6.70 to 7.60
13,"CNC(=O)[C@]1(C)CC[C@@H](Nc2ncc3c(Br)nn(-c4cc(CO)cc(S(C)(=O)=O)c4)c3n2)C1 [(1R,3R)-3-[[3-bromo-1-[3-(hydroxymethyl)-5-methylsulfonyl-phenyl]pyrazolo[3,4-d]pyrimidin-6-yl]amino]-N,1-dimethyl-cyclo-pentanecarboxamide]",6.70 to 7.60
14,"CNC(=O)[C@]1(C)CC[C@@H](Nc2ncc3c(Br)nn(-c4ccc(-c5ncco5)c(CNS(C)(=O)=O)c4)c3n2)C1 [(1R,3R)-3-[[3-bromo-1-[3-(methane-sulfonamidomethyl)-4-oxazol-2-yl-phenyl]pyrazolo[3,4-d]pyrimidin-6-yl]amino]-N,1-dimethyl-cyclopentanecarboxamide]",6.70 to 7.60
15,"CNC(=O)[C@]1(C)CC[C@@H](Nc2ncc3c(Br)nn(-c4ccc(-c5nnc(C)s5)c(OCS(C)(=O)=O)c4)c3n2)C1 [(1R,3R)-3-[[3-bromo-1-[3-(methylsulfonyl-methoxy)-4-(5-methyl-1,3,4-thiadiazol-2-yl)phenyl]pyrazolo[3,4-d]pyrimidin-6-yl]amino]-N,1-dimethyl-cyclopentane-carboxamide]",6.70 to 7.60
16,"CNC(=O)[C@]1(C)CC[C@@H](Nc2ncc3c(Br)nn(-c4cccc(NC5COC5)c4)c3n2)C1 [(1R,3R)-3-[[3-bromo-1-[3-(oxetan-3-ylamino)phenyl]pyrazolo[3,4-d]pyrimidin-6-yl]amino]-N,1-dimethyl-cyclopentanecarboxamide]",6.70 to 7.60

# The next lines start with the values.
row,pIC50,Compound
1,6.70 to 7.60,"CNC(=O)[C@]1(C)CC[C@@H](Nc2ncc3c(Br)nn(-c4ccc(-c5ncco5)c(CC(=O)N(C)C)c4)c3n2)C1 [(1R,3R)-3-[[3-bromo-1-[3-[2-(dimethylamino)-2-oxo-ethyl]-4-oxazol-2-yl-phenyl]pyrazolo [3,4-d]pyrimidin-6-yl]amino]-N,1-dimethyl-cyclopentanecarboxamide]"
2,6.70 to 7.60,"CNCCc1cc(-n2nc(Br)c3cnc(N[C@@H]4CC[C@@](C)(C(=O)NC)C4)nc32)ccc1-c1ncco1 [(1R,3R)-3-[[3-bromo-1-[3-[2-(methylamino)ethyl]-4-oxazol-2-yl-phenyl]pyrazolo[3,4-d]pyrimidin-6-yl]amino]-N,1-dimethyl-cyclopentanecarboxamide]"
3,6.70 to 7.60,"CNC(=O)[C@]1(C)CC[C@@H](Nc2ncc3c(Br)nn(-c4ccc(-c5ncco5)c([C@@H](C)C#N)c4)c3n2)C1 [(1R,3R)-3-[[3-bromo-1-[3-[(1R)-1-cyanoethyl]-4-oxazol-2-yl-phenyl]pyrazolo[3,4-d]pyrimidin-6-yl]amino]-N,1-dimethyl-cyclopentane-carboxamide]"
4,6.70 to 7.60,"CNC(=O)[C@]1(C)CC[C@@H](Nc2ncc3c(Br)nn(-c4ccc(-c5ncco5)c([C@H](C)C#N)c4)c3n2)C1 [(1R,3R)-3-[[3-bromo-1-[3-[(1S)-1-cyanoethyl]-4-oxazol-2-yl-phenyl]pyrazolo[3,4-d]pyrimidin-6-yl]amino]-N,1-dimethyl-cyclopentane-carboxamide]"
5,6.70 to 7.60,"CNC(=O)[C@]1(C)CC[C@@H](Nc2ncc3c(Br)nn(-c4ccc(-c5ncco5)c(CNCC(F)F)c4)c3n2)C1 [(1R,3R)-3-[[3-bromo-1-[3-[(2,2-difluoroethylamino)methyl]-4-oxazol-2-yl-phenyl]pyrazolo[3,4-d]pyrimidin-6-yl]amino]-N,1-dimethyl-cyclopentane-carboxamide]"
6,6.70 to 7.60,"CNC(=O)[C@]1(C)CC[C@@H](Nc2ncc3c(Br)nn(-c4ccc(-c5ncco5)c(NC(=O)CC#N)c4)c3n2)C1 [(1R,3R)-3-[[3-bromo-1-[3-[(2-cyanoacetyl)amino]-4-oxazol-2-yl-phenyl]pyrazolo [3,4-d]pyrimidin-6-yl]amino]-N,1-dimethyl-cyclopentanecarboxamide]"
7,6.70 to 7.60,"CNC(=O)[C@]1(C)CC[C@@H](Nc2ncc3c(Br)nn(-c4cc(CNCCC#N)cc(OC(F)(F)F)c4)c3n2)C1 [(1R,3R)-3-[[3-bromo-1-[3-[(2-cyanoethyl-amino)methyl]-5-(trifluoromethoxy)phenyl]pyrazolo[3,4-d]pyrimidin-6-yl]amino]-N,1-dimethyl-cyclopentane-carboxamide]"
8,6.70 to 7.60,"CNC(=O)[C@]1(C)CC[C@@H](Nc2ncc3c(Br)nn(-c4ccc5ncc(CNCCC#N)cc5c4)c3n2)C1 [(1R,3R)-3-[[3-bromo-1-[3-[(2-cyanoethyl-amino)methyl]-6-quinolyl]pyrazolo[3,4-d]pyrimidin-6-yl]amino]-N,1-dimethyl-cyclo-pentanecarboxamide]"
9,6.70 to 7.60,"CNC(=O)[C@]1(C)CC[C@@H](Nc2ncc3c(Br)nn(-c4cc(CNCCOC)cc(OC(F)(F)F)c4)c3n2)C1 [(1R,3R)-3-[[3-bromo-1-[3-[(2-methoxy-ethylamino)methyl]-5-(trifluoromethoxy)phenyl]pyrazolo[3,4-d]pyrimidin-6-yl]amino]-N,1-dimethyl-cyclopentanecarboxamide]"
10,6.70 to 7.60,"CNC(=O)[C@]1(C)CC[C@@H](Nc2ncc3c(Br)nn(-c4cc(OCC5(F)CNC5)cc(OC(F)(F)F)c4)c3n2)C1 [(1R,3R)-3-[[3-bromo-1-[3-[(3-fluoroazetidin-3-yl)methoxy]-5-(trifluoromethoxy)phenyl]pyrazolo[3,4-d]pyrimidin-6-yl]amino]-N,1-dimethyl-cyclopentanecarboxamide]"
11,6.70 to 7.60,"CNC(=O)[C@]1(C)CC[C@@H](Nc2ncc3c(Br)nn(-c4cc(Br)cc(CO)c4)c3n2)C1 [(1R,3R)-3-[[3-bromo-1-[3-bromo-5-(hydroxymethyl)phenyl]pyrazolo [3,4-d]pyrimidin-6-yl]amino]-N,1-dimethyl-cyclopentanecarboxamide]"
12,6.70 to 7.60,"CNC(=O)[C@]1(C)CC[C@@H](Nc2ncc3c(Br)nn(-c4ccc(OCCO)c(Cl)c4)c3n2)C1 [(1R,3R)-3-[[3-bromo-1-[3-chloro-4-(2-hydroxyethoxy)phenyl]pyrazolo [3,4-d]pyrimidin-6-yl]amino]-N,1-dimethyl-cyclopentanecarboxamide]"
